Our source for the IC50 values is US7432260B2, “Pyrimidine compounds” (Cyclacel Limted, priority 2002, dated 2008).

The target in one assay is CDK2/cyclin A (Homo sapiens, UniProt P24941). The assay is described as follows: Kinase assay CDK2/cyclin A. The format is biochemical. Particulars: Table 2; read-out: Kinase Inhibition IC50 CDK2 cyclin A. As for the experimental part: (§1) Kinase assays. […] This was achieved by measurement of incorporation of radioactive phosphate from ATP into appropriate polypeptide substrates. Recombinant protein kinases and kinase complexes were produced or obtained commercially. Assays were performed using 96-well plates and appropriate assay buffers (typically 25 mM β-glycerophosphate, 20 mM MOPS, 5 mM EGTA, 1 mM DTT, 1 mM […], pH 7.4), into which were added 2-4 μg of active enzyme with appropriate substrates. The reactions were initiated by addition of Mg/ATP mix (15 mM MgCl2+100 μM ATP with 30-50 kBq per well of [γ-^32P]-ATP) and mixtures incubated as required at 30° C. Reactions were stopped on ice, followed by filtration through p81 filterplates or GF/C filterplates (Whatman Polyfiltronics, Kent, UK). After washing 3 times with 75 mM aq orthophosphoric acid, plates were dried, scintillant added and incorporated radioactivity measured in a scintillation counter (TopCount, Packard Instruments, Pangbourne, Berks, UK). Compounds for kinase assay were made-up as 10 mM stocks in DMSO and diluted into 10% DMSO inrassay buffer.

Another assay deals with CDK1/cyclin B (Homo sapiens, UniProt P06493). Put plainly: Kinase assay CDK1/cyclin B. The following applies: Table 2; read-out: Kinase Inhibition IC50 CDK1 cyclin B. The class given is biochemical. As for the experimental part:
as §1

The next assay has as its system HT29. The assay is described as follows: 72-h MTT cytotoxicity assay HT29. Particulars: Homo sapiens, HT-29, 72 h, Table 4. The format is cell-based. As for the experimental part: (§2) MTT cytotoxicity assay. […] Standard 72-h MTT (thiazolyl blue; 3-[4,5-dimethylthiazol-2-yl]-2,5-diphenyltetrazolium bromide) assays were performed (Haselsberger, K.; Peterson, D. C.; Thomas, D. G.; Darling, J. L. Anti Cancer Drugs 1996, 7, 331-8; Loveland, B. E.; Johns, T. G.; Mackay, I. R.; Vaillant, F.; Wang, Z. X.; Hertzog, P. J. Biochemistry International 1992, 27, 501-10). In short: cells were seeded into 96-well plates according to doubling time and incubated overnight at 37° C. Test compounds were made up in DMSO and a 1/3 dilution series prepared in 100 μL cell media, added to cells (in triplicates) and incubated for 72 ho at 37° C. MTT was made up as a stock of 5 mg/mL in cell media and filter-sterilised. Media was removed from cells followed by a wash with 200 μL PBS.
(§3) MTT solution was then added at 20 μL per well and incubated in the dark at 37° C. for 4 h. MTT solution was removed and cells again washed with 200 μL PBS. MTT dye was solubilised with 200 μL per well of DMSO with agitation.

In another assay the target is CDK9/cyclin T1 (Homo sapiens, UniProt P50750). The assay is described as follows: CDK9 assay. The class given is biochemical. Particulars: Table 2; read-out: Kinase Inhibition IC50 CDK9 cyclin T1. The protocol:
as §1
(§4) CDK 7 and 9 assays. CTD peptide substrate (biotinyl-Ahx-(Tyr-Ser-Pro-Thr-Ser-Pro-Ser)4-NH2; 1-2 mg/mL) and recombinant human CDK7/cyclin H, CDK9/cyclin T1, or CDK9/cyclin K (0.5-2 μg) were incubated for 45 min at 30° C. in the presence of varying amounts of test compound in 20 mM MOPS pH 7.2, 25 mM β-glycerophosphate, 5 mM EGTA, 1 mM DTT, 1 mM sodium vanadate, 15 mM MgCl2, and 100 μM ATP (containing a trace amount of ^32PγATP) in a total volume of 25 μL in a 96-well microtiter plate. The reaction was stopped by placing the plate on ice for 2 min. Avidin (50 μg) was added to each well, and the plate was incubated at room temp for 30 min. The samples were transferred to a 96-well P81 filter plate, and washed (4×200 μL per well) with 75 mM phosphoric acid. Microscint 40 scintillation liquid (50 μL) was added to each well, and the amount of ^32P incorporation for each sample was measured using a Packard Topcount microplate scintillation counter.

The subject of the next assay is A549. Put plainly: 72-h MTT cytotoxicity assay A549. The class given is cell-based. Particulars: Homo sapiens, A549, 72 h, Table 4. As for the experimental part: as §2, §3
A general note: Formazan colour is commonly taken as a measure of viable cells.

In the next assay the target is GSK-3β (Homo sapiens, UniProt P49841). The assay is described as follows: Kinase assay GSK-3β. The format is biochemical. Particulars: Table 2; read-out: Kinase Inhibition IC50 GSK-3β. The protocol: as §1
Chain of GSK-3β (P49841 whole entry): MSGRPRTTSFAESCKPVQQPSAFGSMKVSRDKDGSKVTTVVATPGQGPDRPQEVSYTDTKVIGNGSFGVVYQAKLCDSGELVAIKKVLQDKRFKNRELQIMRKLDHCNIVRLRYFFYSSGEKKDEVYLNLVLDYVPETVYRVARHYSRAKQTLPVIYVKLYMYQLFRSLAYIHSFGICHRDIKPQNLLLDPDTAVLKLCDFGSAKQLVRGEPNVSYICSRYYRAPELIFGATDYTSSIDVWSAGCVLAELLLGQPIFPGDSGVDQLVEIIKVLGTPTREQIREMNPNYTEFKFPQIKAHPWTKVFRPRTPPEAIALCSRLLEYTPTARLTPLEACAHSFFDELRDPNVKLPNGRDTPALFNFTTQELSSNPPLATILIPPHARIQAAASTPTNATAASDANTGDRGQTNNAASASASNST
The next assay deals with CDK7/cyclin H (Homo sapiens, UniProt P50613). The assay is described as follows: CDK7 assay. The format is biochemical. Particulars: Table 2; read-out: Kinase Inhibition IC50 CDK7 cyclin H. The protocol:
as §1, §4

For another assay, the target named is CDK2/cyclin E (Homo sapiens, UniProt P24941). The assay is described as follows: Kinase assay CDK2/cyclin E. The format is biochemical. The following applies: Table 2; read-out: Kinase Inhibition IC50 CDK2 cyclin E. The protocol:
as §1

A further assay relates to Saos-2. Put plainly: 72-h MTT cytotoxicity assay Saos-2. The class given is cell-based. Particulars: Homo sapiens, SAOS-2, 72 h, Table 4. The protocol:
as §2, §3

The target of a further assay is CDK4/cyclin D1 (Homo sapiens, UniProt P11802). Put plainly: Kinase assay CDK4/cyclin D1. The following applies: Table 2; read-out: Kinase Inhibition IC50 CDK4 cyclin D1. The format is biochemical. As for the experimental part:
as §1

Chain of CDK9/cyclin T1 (P50750 whole entry): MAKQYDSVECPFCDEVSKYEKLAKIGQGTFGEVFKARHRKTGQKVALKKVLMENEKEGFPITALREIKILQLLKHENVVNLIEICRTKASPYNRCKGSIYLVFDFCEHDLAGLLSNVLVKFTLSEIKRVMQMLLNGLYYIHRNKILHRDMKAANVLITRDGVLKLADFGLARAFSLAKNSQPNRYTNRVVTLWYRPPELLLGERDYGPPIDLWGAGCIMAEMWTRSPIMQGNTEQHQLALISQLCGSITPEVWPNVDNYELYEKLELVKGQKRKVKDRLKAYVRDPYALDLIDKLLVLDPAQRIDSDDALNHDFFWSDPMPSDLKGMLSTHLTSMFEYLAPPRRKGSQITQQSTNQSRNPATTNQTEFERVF
Chain of CDK9/cyclin T1 (O60563 whole entry partner): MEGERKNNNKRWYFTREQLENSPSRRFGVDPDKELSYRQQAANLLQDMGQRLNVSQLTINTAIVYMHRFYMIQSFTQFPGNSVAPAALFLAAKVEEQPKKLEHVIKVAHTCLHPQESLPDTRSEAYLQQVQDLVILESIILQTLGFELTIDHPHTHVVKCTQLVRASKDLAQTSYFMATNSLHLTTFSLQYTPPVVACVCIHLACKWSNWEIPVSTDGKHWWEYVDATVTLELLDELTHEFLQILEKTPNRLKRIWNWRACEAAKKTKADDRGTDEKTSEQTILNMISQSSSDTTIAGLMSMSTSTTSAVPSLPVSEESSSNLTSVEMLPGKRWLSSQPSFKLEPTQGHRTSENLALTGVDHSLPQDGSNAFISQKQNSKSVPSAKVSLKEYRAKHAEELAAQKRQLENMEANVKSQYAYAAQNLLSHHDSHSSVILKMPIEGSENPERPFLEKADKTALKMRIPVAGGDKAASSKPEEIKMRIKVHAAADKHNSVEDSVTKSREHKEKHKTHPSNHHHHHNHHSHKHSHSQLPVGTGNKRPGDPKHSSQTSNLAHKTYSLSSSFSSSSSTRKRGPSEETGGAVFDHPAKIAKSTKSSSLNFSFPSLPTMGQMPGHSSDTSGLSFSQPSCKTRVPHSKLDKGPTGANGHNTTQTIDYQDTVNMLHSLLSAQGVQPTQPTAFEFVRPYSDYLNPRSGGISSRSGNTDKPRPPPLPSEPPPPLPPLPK
Chain of CDK4/cyclin D1 (P11802 whole entry): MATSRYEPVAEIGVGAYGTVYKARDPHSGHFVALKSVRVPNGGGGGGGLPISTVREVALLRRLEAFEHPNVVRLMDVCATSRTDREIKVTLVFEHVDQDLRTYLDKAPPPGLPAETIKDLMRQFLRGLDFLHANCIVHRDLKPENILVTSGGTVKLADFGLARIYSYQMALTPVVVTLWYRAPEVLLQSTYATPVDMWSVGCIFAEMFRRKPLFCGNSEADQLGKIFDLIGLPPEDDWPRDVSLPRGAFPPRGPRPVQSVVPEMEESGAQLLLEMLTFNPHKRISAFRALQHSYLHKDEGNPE
Chain of CDK4/cyclin D1 (P24385 whole entry partner): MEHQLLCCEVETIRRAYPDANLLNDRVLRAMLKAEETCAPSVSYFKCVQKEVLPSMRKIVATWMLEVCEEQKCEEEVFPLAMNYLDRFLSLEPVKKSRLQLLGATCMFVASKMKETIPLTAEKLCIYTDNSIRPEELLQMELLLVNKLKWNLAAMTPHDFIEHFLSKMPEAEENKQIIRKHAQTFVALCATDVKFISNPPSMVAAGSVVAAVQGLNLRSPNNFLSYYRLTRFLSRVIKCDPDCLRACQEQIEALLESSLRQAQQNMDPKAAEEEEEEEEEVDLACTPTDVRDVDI
Chain of CDK1/cyclin B (P06493 whole entry): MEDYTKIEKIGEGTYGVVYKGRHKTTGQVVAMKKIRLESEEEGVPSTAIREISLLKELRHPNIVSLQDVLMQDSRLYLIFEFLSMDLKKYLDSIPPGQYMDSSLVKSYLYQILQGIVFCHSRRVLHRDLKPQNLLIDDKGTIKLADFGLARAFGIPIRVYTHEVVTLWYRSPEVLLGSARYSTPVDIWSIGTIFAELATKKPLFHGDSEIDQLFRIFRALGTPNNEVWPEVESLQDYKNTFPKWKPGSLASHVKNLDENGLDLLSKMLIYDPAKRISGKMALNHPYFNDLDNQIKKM
Chain of CDK1/cyclin B (P14635 whole entry partner): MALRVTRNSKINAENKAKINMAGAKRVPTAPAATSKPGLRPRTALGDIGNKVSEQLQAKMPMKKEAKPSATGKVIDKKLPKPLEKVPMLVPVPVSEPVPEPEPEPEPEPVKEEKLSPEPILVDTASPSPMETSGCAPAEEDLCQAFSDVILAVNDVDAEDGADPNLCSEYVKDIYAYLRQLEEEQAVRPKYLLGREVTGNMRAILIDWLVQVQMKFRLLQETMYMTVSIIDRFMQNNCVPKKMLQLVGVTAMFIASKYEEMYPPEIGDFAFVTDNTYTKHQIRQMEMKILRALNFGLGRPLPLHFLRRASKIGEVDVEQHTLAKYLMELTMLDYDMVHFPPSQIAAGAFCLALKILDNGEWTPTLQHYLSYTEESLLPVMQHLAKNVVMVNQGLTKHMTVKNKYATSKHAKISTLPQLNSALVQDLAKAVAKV
Chain of CDK7/cyclin H (P50613 whole entry): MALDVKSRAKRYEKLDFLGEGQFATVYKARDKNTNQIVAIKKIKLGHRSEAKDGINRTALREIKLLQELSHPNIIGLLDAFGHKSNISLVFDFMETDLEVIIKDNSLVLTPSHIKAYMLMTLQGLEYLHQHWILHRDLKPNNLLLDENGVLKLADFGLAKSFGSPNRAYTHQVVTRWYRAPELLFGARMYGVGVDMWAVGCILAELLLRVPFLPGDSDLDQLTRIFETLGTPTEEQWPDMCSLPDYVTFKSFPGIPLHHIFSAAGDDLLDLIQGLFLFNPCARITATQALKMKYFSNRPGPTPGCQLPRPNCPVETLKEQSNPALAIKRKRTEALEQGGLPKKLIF

`Cc1nc(NC(=O)CCl)sc1-c1ccnc(Nc2cccc(Cl)c2)n1` [Compound 25, 2-Chloro-N-{5-[2-(3-chloro-phenylamino)-pyrimidin-4-yl]-4-methyl-thiazol-2-yl}-acetamide]: the IC50 (commonly the concentration that gives 50% inhibition) on CDK2/cyclin A stood at 3 µM; at CDK1/cyclin B, 9.4 µM; in the assay on HT29, 1.3 µM; at CDK9/cyclin T1 it was 0.68 µM; in the assay with A549 it was 0.97 µM; at GSK-3β, 0.083 µM. Further, the IC50 on CDK7/cyclin H was 3.2 µM; at CDK2/cyclin E, 0.22 µM; in the assay with Saos-2 it was 1.6 µM; on CDK4/cyclin D1, 0.97 µM.

Consider `Cc1nc(NC(=O)CNCCOCCO)sc1-c1ccnc(Nc2ccc(N(C)C)cc2)n1` [Compound 29, N-{5-[2-(4-Dimethylamino-phenylamino)-pyrimidin-4-yl]-4-methyl-thiazol-2-yl}-2-[2-(2-hydroxy-ethoxy)-ethylamino]-acetamide], for which the IC50 at CDK2/cyclin A is 0.49 µM; at CDK1/cyclin B it was 0.86 µM; in the assay on HT29, 2.6 µM; in the assay on A549, 0.69 µM; on GSK-3β it was 0.56 µM; at CDK7/cyclin H, 1.2 µM. The IC50 on CDK2/cyclin E turned out to be 0.47 µM; in the assay with Saos-2 it was 0.72 µM; at CDK4/cyclin D1, 1.1 µM.

In the case of `Cc1nc(NS(C)(=O)=O)sc1-c1ccnc(Nc2cccc([N+](=O)[O-])c2)n1` [Compound 32, N-{4-Methyl-5-[2-(3-nitro-phenylamino)-pyrimidin-4-yl]-thiazol-2-yl}-methanesulfonamide], the IC50 in the assay on HT29 turned out to be 0.17 µM; at CDK9/cyclin T1 it was 0.0014 µM; with A549, 0.1 µM; at GSK-3β, 0.21 µM; at CDK2/cyclin E, 0.005 µM; in the assay on Saos-2, 0.16 µM. Besides, on CDK4/cyclin D1, the IC50 stood at 1.1 µM.

With `Cc1nc(C)c(-c2ccnc(Nc3ccc(NC(=O)Cn4ccnc4)cc3)n2)s1` [Compound 54, N-{4-[4-(2,4-Dimethyl-thiazol-5-yl)-pyrimidin-2-ylamino]-phenyl}-2-imidazol-1-yl-acetamide], the half-maximal inhibitory concentration (IC50) on CDK2/cyclin A turned out to be 57 µM; on CDK1/cyclin B it was 1.3 µM; in the assay on HT29 it was 2.7 µM; on CDK9/cyclin T1, 0.11 µM; in the assay on A549 it was 2.9 µM; on GSK-3β it was 19 µM. The IC50 at CDK7/cyclin H turned out to be 2.1 µM; on CDK2/cyclin E, 0.098 µM; in the assay with Saos-2, 1.9 µM; on CDK4/cyclin D1, 0.032 µM.

On to `CNc1nc(C)c(-c2ccnc(Nc3ccc(N4CCN(C(C)=O)CC4)cc3)n2)s1` [Compound 61, 1-(4-{4-[4-(4-Methyl-2-methylamino-thiazol-5-yl)-pyrimidin-2-ylamino]-phenyl}-piperazin-1-yl)-ethanone], for which the IC50 at CDK1/cyclin B stood at 2.5 µM; in the assay with HT29 it was 0.53 µM; at CDK9/cyclin T1, 1.5 µM; in the assay with A549 it was 0.72 µM; at GSK-3β it was 6.8 µM; at CDK7/cyclin H it was 2.3 µM. For the same compound, the results for the IC50 in the assay with Saos-2 and at CDK4/cyclin D1 were 1 µM and 0.042 µM, respectively.

`Cc1nc(N2CCOCC2)sc1-c1ccnc(Nc2cccc([N+](=O)[O-])c2)n1` [Compound 71, [4-(4-Methyl-2-morpholin-4-yl-thiazol-5-yl)-pyrimidin-2-yl]-(3-nitro-phenyl)-amine]: the IC50 on CDK2/cyclin A was 0.006 µM; at CDK1/cyclin B, 0.33 µM; with HT29 it was 71 µM; at CDK9/cyclin T1 it was 4.2 µM; in the assay with A549, 80 µM; at GSK-3β, 2.4 µM. The IC50 on CDK7/cyclin H is 2.4 µM; at CDK2/cyclin E, 0.22 µM; in the assay with Saos-2 it was 10 µM.

In the case of `Cc1nc(N)sc1-c1ccnc(Nc2ccc(S(C)(=O)=O)cc2)n1` [Compound 76, [4-(2-Amino-4-methyl-thiazol-5-yl)-pyrimidin-2-yl]-(4-methanesulfonyl-phenyl)-amine], the half-maximal inhibitory concentration (IC50) stood at 0.14 µM on CDK2/cyclin A; 1.8 µM on CDK1/cyclin B; 1.8 µM in the assay on HT29; 5.8 µM in the assay with A549; 5.4 µM on GSK-3β; 11 µM on CDK7/cyclin H. For the same compound, the IC50 at CDK2/cyclin E is 0.15 µM; with Saos-2 it was 1.3 µM; on CDK4/cyclin D1, 3.2 µM.

Consider `CNc1nc(C)c(-c2ccnc(Nc3cccc(CNS(=O)(=O)C(F)(F)F)c3)n2)s1` [Compound 82, C,C,C-Trifluoro-N-{3-[4-(4-methyl-2-methylamino-thiazol-5-yl)-pyrimidin-2-ylamino]-benzyl}-methanesulfonamide], for which the IC50 at CDK2/cyclin A was determined as 1.3 µM; on CDK1/cyclin B, 2.7 µM; at GSK-3β it was 1.2 µM; at CDK7/cyclin H it was 4 µM; at CDK2/cyclin E, 0.014 µM; at CDK4/cyclin D1, 2.3 µM.

Consider `CNc1nc(C)c(-c2ccnc(Nc3cccc(CNS(C)(=O)=O)c3)n2)s1` [Compound 83, N-{3-[4-(4-Methyl-2-methylamino-thiazol-5-yl)-pyrimidin-2-ylamino]-benzyl}-methanesulfonamide], for which the IC50 on CDK2/cyclin A turned out to be 0.15 µM; on CDK1/cyclin B, 0.48 µM; on GSK-3β, 1 µM; on CDK7/cyclin H, 0.37 µM; at CDK2/cyclin E, 0.025 µM; at CDK4/cyclin D1, 0.67 µM.

With `Cc1nc(N)sc1-c1ccnc(Nc2cccc(S(C)(=O)=O)c2)n1` [Compound 84, [4-(2-Amino-4-methyl-thiazol-5-yl)-pyrimidin-2-yl]-(3-methanesulfonyl-phenyl)-amine], the IC50 on CDK2/cyclin A turned out to be 0.05 µM; at CDK1/cyclin B, 0.14 µM; at GSK-3β it was 0.3 µM; at CDK7/cyclin H, 0.43 µM; at CDK2/cyclin E it was 0.076 µM; at CDK4/cyclin D1 it was 0.3 µM.

Take `Cc1c(-c2ccnc(Nc3ccc(N4CCOCC4)cc3)n2)sc(=O)n1C` [Compound 92, 3,4-Dimethyl-5-[2-(4-morpholin-4-yl-phenylamino)-pyrimidin-4-yl]-3H-thiazol-2-one]: the IC50 stood at 1.2 µM on CDK2/cyclin A; 15 µM on CDK1/cyclin B; 0.47 µM on GSK-3β; 2.8 µM on CDK7/cyclin H; 0.64 µM at CDK2/cyclin E; 1.3 µM on CDK4/cyclin D1.

Regarding `Cc1c(-c2ccnc(Nc3ccc(N4CCN(C)CC4)cc3)n2)sc(=O)n1C` [Compound 93, 3,4-Dimethyl-5-{2-[4-(4-methyl-piperazin-1-yl)-phenylamino]-pyrimidin-4-yl}-3H-thiazol-2-one], the IC50 on CDK2/cyclin A came to 1.1 µM; on CDK1/cyclin B, 4.4 µM; at CDK9/cyclin T1 it was 0.3 µM; on GSK-3β, 0.43 µM; on CDK7/cyclin H it was 0.36 µM; at CDK2/cyclin E it was 0.84 µM. For the same compound, the IC50 at CDK4/cyclin D1 is 0.51 µM.
